“Also recorded” adds a separate entry of the source.
Legend:
rhBMP-2 [1] = molecular target: T1, rhBMP-2 (Homo sapiens, UniProt P12643); experiment: Surface plasmon resonance, interaction of rhBMP-2 and BBP; assay type: binding; conditions: BBP decyclized by prior reduction with β-mercaptoethanol
T1 sequence (P12643 283-396): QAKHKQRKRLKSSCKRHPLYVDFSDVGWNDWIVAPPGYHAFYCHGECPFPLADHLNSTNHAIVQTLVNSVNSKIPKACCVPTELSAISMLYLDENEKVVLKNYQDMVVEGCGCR
Protocol: Buffers and chips for the procedure were obtained from Biacore. […] This material was then attached to a CM-5 sensor chip using reagents and procedures supplied by the manufacturer. Running butter was 10 mM HEPES, pH 7.4, 150 mM NaCl, 3 mM EDTA, 0.005% Surfactant P20, The peptide was dissolved in running buffer at concentrations ranging from 1×10^−5 to 1×10^−4 M. Flow rates from 5 to 50 μl/mm and injection volumes of 20 to 100 μl were employed. The regeneration solution was […] glycine-HCl, pH 2.0.

male Swiss-Weber mice = experiment: Mouse hindquarter (muscle pouch) ectopic bone formation assay, BBP; assay type: in vivo; conditions: for Bone Area / Bone Mineral Content: densitometry
Protocol: Methods: The osteogenic activity of material was tested using male Swiss-Weber mice aged 8 to 10 weeks were used (Taconic Farms, Germantown, N.Y.). Prior to the assay, the BBP was solublized and lyophilized into 2 mg of atelocollagen. The dried material was placed in a #5 gelatin capsule and sterilized by exposure to chloroform vapor. To conduct the assay, mice were anesthetized using 1% isoflurane delivered in oxygen at 2 l/min through a small animal anesthesia machine (VetEquip, Pleasanton, Calif.). Animals were affixed to a surgery board and the fur over the hindquarters shaved. The skin was cleaned with 70% ethanol and a midline incision made over the spine adjacent to the hindquarters. Blunt dissection with scissors was used to expose the quadriceps muscle on one side. A small pouch was made in the muscle using the point of scissors and the #5 capsule containing the test material was inserted into the pouch. The skin was then closed with three 11 mm Michel surgical clips and the animal returned to its cage for monitoring.
After 21 days the animals were killed and the hindquarter removed. Radiological examination of the specimens was accomplished using a small parts X-Ray cabinet (Faxitron, Wheeling, Ill.). For quantization of bone formation, bone area and the bone mineral content (BMC) of an area of interest encompassing the site of ectopic bone formation was determined using a PIXImus2 small animal densitometer (GE Lunar, Madison, Wis.). Specimens were then placed in buffered formalin and submitted for routine processing for histological examination.

rhBMP-2 [2] = molecular target: T1, rhBMP-2; experiment: Residence time study: BBP and rhBMP-2 on collagen sponges in muscle pouches; assay type: in vivo, rodents
Text: Methods: Labeled rhBMP-2 was mixed with BBP or vehicle and applied to collagen sponges. The sponges were implanted into muscle pouches in rodents. At specified times (1, 3 and 7 days), the implants were removed and the amount of BMP remaining determined. Four animals were used in each group.

Lewis rats [3] = experiment: Rat posterolateral intertransverse process spinal fusion L4-L5 (Example 6); assay type: in vivo; conditions: Group 1: BBP 500 μg only, week 8
Protocol: All rats underwent post-operative radiography at 2, 4, 6, and 8 weeks. Manual spinal palpation was performed at 8 weeks, the time of sacrifice. Bone formation was assessed in histological sections stained with H&E.

Lewis rats [4] = experiment: Rat posterolateral intertransverse process spinal fusion L4-L5 (Example 7); assay type: in vivo; conditions: week 8
Protocol: Methods: Five groups of 50 Lewis rats each underwent posterolateral intertransverse process spinal fusion at vertebrae L4-L5 with implanted: BBP (500 μg) (Group 1); BBP (1000 μg) (Group 2), collagen plus low dose BMP-2 (1 μg) (Group 3), BBP (500 μg) plus low dose BMP (1 μg) (Group 4) and BBP (1000 μg) plus low dose BMP (1 μg) (Group 5). Control groups included a negative group (decortication) and positive control group (collagen plus 3 μg BMP).
All rats underwent post-operative radiography at 2, 4, 6, and 8 weeks. Manual spinal palpation was performed at 8 weeks, after the time of sacrifice. Bone formation was assessed in histological sections stained with H&E.

Lewis rats [5] = experiment: Rat posterolateral intertransverse process spinal fusion L4-L5 (Example 8); assay type: in vivo; conditions: for Histology, fused / Manual Palpation, fused: 8th week
Protocol: Methods: Posterolateral intertransverse process spinal fusion at L4-L5 was performed in five treatment groups of Lewis rats each, and collagen sponges (5×5×13 mm) were implanted into the surgical sites.
Each sponge was placed in a sterile microfuge tube and either a suspension of BBP (500 μg or 1000 μg) in water or sterile water alone was applied. The sponges were allowed to air dry in a tissue culture hood overnight and then placed at −70° C. for an hour and lyophilized overnight. The tubes (with small holes in the top to allow for lyophilization) were placed in autoclave pouches and sealed. The materials were then sterilized by exposure to chloroform vapor for at least 4 hours.
The posterolateral intertransverse process spinal fusion at L4-L5 in the rat is a well established procedure in our laboratory 13-17. Briefly, the animal was anesthetized with isofluane and the surgical site was shaved and propped with Betadyne and alcohol. A 3 cm longitudinal midline incision was made through the skin and subcutaneous tissue over L4-L5 down to the lumbodorsal fascia. Then, two separate 2 cm longitudinal paramedial incisions were made in the erector spinae muscles on both sides of L4-L5. The transverse processes of L4-L5 were exposed, cleaned of soft tissue, and decorticated with a high-speed burr. The site was irrigated with saline and the therapeutic test material was placed. The lumbodorsal fascia was closed with 4-0 Prolene (Ethicon, Somerville, N.J.). The skin was closed with 4-0 Prolene and meticulous post-operative care was provided.
These were compared to control groups. Fusion was evaluated by radiology, histology and manual palpation tests. Animals were sacrificed 8 weeks after surgery.
The results of the surgeries were assessed radiologically, histologically, and by manual palpation. Posteroanterior radiographs were obtained using a small parts X-ray cabinet (Faxitron Corp., Wheeling, Ill.) on each animal at 2, 4, 6 and 8 weeks. Radiograms were evaluated by three independent observers employing the following standardized scale: 0: no fusion; 1: incomplete fusion with bone formation present; and 2: complete fusion. The scores from the three observes were added and a total of 5 or 6 was regarded as “fused”. Manual palpation of the spine was performed at the time of sacrifice at 8 weeks. To simulate the gold standard for determining fusion in humans, exploration and manual palpation of the fusion mass were performed after death. The level fused was manually palpated with Adson forceps and compared with the adjacent nonfused levels. Each specimen was graded as fused or non-fused by three independent observers. The spine was designated as “not fused” if any of the three observers graded the spine as not fused. After manual palpation, the specimens were decalcified using standard 10% decalcifying solution HCl (Cal-Ex, Fisher Scientific, Fairlawn, N.J.), washed with running tap water, then transferred to 75% ethanol. Sagittal sections were cut carefully at the level of the transverse process. The specimens were imbedded in paraffin and sections of each specimen obtained. These sections were stained with hematoxylin and eosin. They were evaluated by an independent observer as fused and not fused.
The proportions of subjects in each group judged to be “fused” were compared in sequential two group comparisons with Fisher's exact test using SPSS software. A p score of less than or equal to 0.05 was set for statistical significance.

[6] = BBP 50 μg implanted with 5 μg rhBMP-2, 21 days
[7] = BBP 500 μg implanted with 5 μg rhBMP-2, 21 days

CSCC[C@@H]1NC(=O)[C@H](CCCNC(=N)N)NC(=O)[C@H](C(C)C)NC(=O)[C@H]([C@@H](C)O)NC(=O)[C@H](CO)NC(=O)[C@H](CCCNC(=N)N)NC(=O)[C@@H](N)CSSC[C@@H](C(=O)O)NC(=O)[C@H](CCCNC(=N)N)NC(=O)[C@H](C(C)C)NC(=O)[C@H](Cc2c[nH]c3ccccc23)NC(=O)[C@H](C(C)C)NC(=O)[C@H](CC(N)=O)NC(=O)[C@H](CCC(N)=O)NC(=O)[C@H](C(C)C)NC(=O)[C@H](CCC(N)=O)NC(=O)[C@H](CCC(=O)O)NC(=O)[C@H](C)NC(=O)[C@H](CO)NC1=O [BBP]
binding to rhBMP-2 (rhBMP-2 [1]): no significant binding | calcification after implantation of BBP alone (male Swiss-Weber mice; 500 μg BBP in atelocollagen, mouse muscle, 21 days, radiogram/histology): induced calcification; also recorded: dystrophic calcification primarily associated with intramuscular adipose tissue; also recorded: ectopic dystrophic calcification formation | amount of ectopic bone formed versus rhBMP-2 alone (male Swiss-Weber mice; 500 μg BBP with 5 μg rhBMP-2, densitometry): consistently greater | Bone Area (male Swiss-Weber mice; [6]): 0.159 ± 0.0606 cm^2 | Bone Mineral Content (male Swiss-Weber mice; [6]): 0.00388 ± 0.0017 g | Bone Area (male Swiss-Weber mice; [7]): 0.226 ± 0.0270 cm^2 | Bone Mineral Content (male Swiss-Weber mice; [7]): 0.00528 ± 0.00068 g | increase of rhBMP-2 retention (factor) (rhBMP-2 [2]; collagen sponges in muscle pouches, 1, 3 and 7 days, versus vehicle): about two | retention of rhBMP-2 (fold) (rhBMP-2 [2]; for up to seven days in vitro and in vivo): two | Fusion Rates (Lewis rats [3]): 14% | fusion by manual palpation (Lewis rats [4]; Group 1: BBP 500 μg only): 0% | fusion by manual palpation (Lewis rats [4]; Group 2: BBP 1000 μg only): 0% | fusion with BBP alone (Lewis rats [5]; 500 μg or 1000 μg BBP alone, any time point): none of the animals in low and high dose BBP groups developed fusion at any time points; also recorded: did not provide fusion | radiological examination, fused, Week 2nd (Lewis rats [5]; high dose BBP only (1000 μg)): 0% | radiological examination, fused, Week 4th (Lewis rats [5]; high dose BBP only (1000 μg)): 0% | radiological examination, fused, Week 6th (Lewis rats [5]; high dose BBP only (1000 μg)): 0% | radiological examination, fused, Week 8th (Lewis rats [5]; high dose BBP only (1000 μg)): 0% | Histology, fused (Lewis rats [5]; high dose BBP only (1000 μg)): 0% | Manual Palpation, fused (Lewis rats [5]; high dose BBP only (1000 μg)): 0% | radiological examination, fused, Week 2nd (Lewis rats [5]; low dose BBP only (500 μg)): 0% | radiological examination, fused, Week 4th (Lewis rats [5]; low dose BBP only (500 μg)): 0% | radiological examination, fused, Week 6th (Lewis rats [5]; low dose BBP only (500 μg)): 0% | radiological examination, fused, Week 8th (Lewis rats [5]; low dose BBP only (500 μg)): 0% | Histology, fused (Lewis rats [5]; low dose BBP only (500 μg)): 0% | Manual Palpation, fused (Lewis rats [5]; low dose BBP only (500 μg)): 0%

— patent US9610320B2, “Surgical applications for BMP binding protein” (THE REGENTS OF THE UNIVERSITY OF CALIFORNIA, priority 2004, dated 2017)
